Like-named read-outs stand apart in the source and are kept apart here.
Assays:
BRD7 = target: T1, BRD7 (Homo sapiens, UniProt Q9NPI1); assay: BRD7 degradation, HiBiT-BRD7 KI HEK293 (LgBiT) cells, NanoGlo Lytic Endpoint assay (Assay Protocol 1); type: cell-based; conditions: for Dmax / Dmax at 1 µM: HEK293; for Dmax / DC50: Table 5, assay protocol 1; for Dmax at 1 µM: Table 3, assay 1, 1 μM compound at 5 h of treatment
T1 construct: HiBiT-BRD7 KI HEK293 (LgBiT) Cells (Promega CS3023410); host or cells: HEK293 (LgBiT), HiBiT knock-in at the BRD7 locus
T1 sequence (Q9NPI1 1-651): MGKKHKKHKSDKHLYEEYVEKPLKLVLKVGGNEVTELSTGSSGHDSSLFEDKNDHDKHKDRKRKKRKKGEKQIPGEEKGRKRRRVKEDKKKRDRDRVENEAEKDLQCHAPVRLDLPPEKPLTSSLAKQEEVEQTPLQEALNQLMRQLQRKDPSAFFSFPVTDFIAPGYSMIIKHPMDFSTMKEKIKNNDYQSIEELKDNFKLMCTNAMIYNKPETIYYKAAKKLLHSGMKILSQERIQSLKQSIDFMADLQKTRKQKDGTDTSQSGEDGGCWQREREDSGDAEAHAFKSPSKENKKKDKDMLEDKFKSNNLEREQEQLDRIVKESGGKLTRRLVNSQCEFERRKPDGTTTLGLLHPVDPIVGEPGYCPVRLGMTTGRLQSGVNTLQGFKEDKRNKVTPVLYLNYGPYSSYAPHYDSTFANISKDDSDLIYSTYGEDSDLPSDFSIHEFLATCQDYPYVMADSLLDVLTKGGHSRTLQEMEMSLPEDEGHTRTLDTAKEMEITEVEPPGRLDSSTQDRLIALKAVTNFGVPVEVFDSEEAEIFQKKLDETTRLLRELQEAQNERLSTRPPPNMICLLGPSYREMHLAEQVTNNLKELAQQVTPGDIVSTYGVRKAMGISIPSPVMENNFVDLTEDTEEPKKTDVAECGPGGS
Procedure: HiBiT-BRD9 KI HEK293 (LgBiT) Cells (Promega CS3023412) were seeded at 8000 cells per well (38 μL) in sterile white bottom 384 well plates (Invitrogen 164610 or Greiner 781080) and incubated overnight at 37° C. with 5% CO2. The next day, compounds were prepared at 1000× final concentration in DMSO and diluted 1:100 in media (DMEM PAN Biotech P04-03550+10% FBS ATCC 302025). […] The lytic buffer was equilibrated to room temperature for 10-15 min before lytic reagent was prepared by adding substrate (1:50) and LgBit protein (1:100) in lytic buffer. 40 μL lytic reagent mix was added to each well of the cel plate and plates were centrifuged briefly at ˜50g. Plates were incubated with shaking (350 RPM) for 12-24 min before reading using the LUM plus module of a BMG Pherastar FSX. Data was analysed using Dotmatics software and % BRD9 remaining was calculated by normalisation to average data from high and low control wells (DMSO treated cels and no cells respectively).
BRD7 degradation was determined in line with the procedure as outlined above for BRD9, with the exception that HiBiT-BRD7 KI HEK293 (LgBiT) Cells (Promega CS3023410) were seeded at 8000 cells per well (CPW) (36 uL) in sterile white bottom 384 well plates (Invitrogen 164610 or Greiner 781080) and incubated overnight at 37° C. with 5% CO2.

BRD9 = target: T2, BRD9 (Homo sapiens, UniProt Q9H8M2); assay: Degradation of BRD9 (IF), immunofluorescence in MV4-11 cells, 24 hours (Assay Protocol 2); type: cell-based; design: A suspension of MV4-11 cells (ATCC CRL-9591) was prepared; host or cells: MV4-11
T2 sequence (Q9H8M2 1-597): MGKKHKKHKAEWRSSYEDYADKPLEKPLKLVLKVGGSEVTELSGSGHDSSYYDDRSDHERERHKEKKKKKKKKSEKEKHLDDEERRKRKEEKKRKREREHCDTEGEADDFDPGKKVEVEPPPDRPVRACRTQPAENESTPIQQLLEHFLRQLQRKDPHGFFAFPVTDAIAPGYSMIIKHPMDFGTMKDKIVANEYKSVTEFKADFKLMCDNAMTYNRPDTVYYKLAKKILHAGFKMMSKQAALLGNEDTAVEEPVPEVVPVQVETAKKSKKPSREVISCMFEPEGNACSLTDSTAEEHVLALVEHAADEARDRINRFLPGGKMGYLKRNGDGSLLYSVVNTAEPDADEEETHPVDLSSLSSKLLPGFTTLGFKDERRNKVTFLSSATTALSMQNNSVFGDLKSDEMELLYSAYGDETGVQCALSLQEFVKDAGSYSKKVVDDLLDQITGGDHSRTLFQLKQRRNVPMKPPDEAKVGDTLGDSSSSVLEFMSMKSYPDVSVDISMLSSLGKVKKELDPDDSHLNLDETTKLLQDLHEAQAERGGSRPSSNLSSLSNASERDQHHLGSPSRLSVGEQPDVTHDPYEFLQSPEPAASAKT
Summary of the method: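 % BRD9 remaining, scaled between DMSO (high) and 100 nM CFT-8634 (low) control wells, derives from mean Alexa 647 contrast in central nuclei by high-content imaging. MV4-11 cells had 24 h compound exposure at 37° C. before PFA fixation, Triton permeabilisation and anti-BRD9 E4Q3F immunostaining.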

[1] = MV4-11, Table 4, BRD9 degradation, determined according to Assay Protocol 2, read-out: Dmax^2
[2] = Table 4, BRD9 degradation, determined according to Assay Protocol 2, read-out: DC50^2
[3] = MV4-11, 24 h, Table 2, BRD9 degradation (IF), Assay Protocol 2, MV4-11 cells, read-out: Assay 2 DCmax
[4] = Table 2, BRD9 degradation (IF), Assay Protocol 2, MV4-11 cells, read-out: Assay 2 DC50
[5] = MV4-11, Table 5, cells marked *: measured in accordance with Assay Protocol 2, read-out: BRD9 Dmax (%)
[6] = Table 5, cells marked *: measured in accordance with Assay Protocol 2, read-out: BRD9 DC50

SMILES | Dmax (BRD7) | DC50 (BRD7) | Dmax (BRD9; [1]) | DC50 (BRD9; [2]) | Dmax at 1 µM (BRD7) | Dmax (BRD9; [3]) | DC50 (BRD9; [4]) | Dmax (BRD9; [5]) | DC50 (BRD9; [6])
COc1cc(-c2cn(C)c(=O)c(C)c2C)cc(OC)c1CN1C2CC1CN(C(=O)/C(C#N)=C/c1cccc(Br)n1)C2 (mixture of isomers) [BRD9o, (E/Z)-3-(6-bromopyridin-2-yl)-2-(6-(2,6-dimethoxy-4-(1,4,5-trimethyl-6-oxo-1,6-dihydropyridin-3-yl)benzyl)-3,6-diazabicyclo[3.1.1]heptane-3-carbonyl)acrylonitrile] | 25 to 40% | > 1000 nM | – | 25 to 200 nM | – | – | – | – | –
COc1cc(-c2cn(C)c(=O)c(C)c2C)cc(OC)c1CN1CCN(Cc2cccc3c2CCN(C(=O)/C(C#N)=C/c2nccs2)C3C)CC1 (mixture of isomers) [Compound A4, (E/Z)-2-(5-((4-(2,6-dimethoxy-4-(1,4,5-trimethyl-6-oxo-1,6-dihydropyridin-3-yl)benzyl)piperazin-1-yl)methyl)-1-methyl-1,2,3,4-tetrahydroisoquinoline-2-carbonyl)-3-(thiazol-2-yl)acrylonitrile] | – | – | – | – | < 25% | 70 to 75% | < 1.25 nM | – | –
COc1cc(-c2cn(C)c(=O)c3cnccc23)cc(OC)c1CN1CCN(Cc2cccc3c2CCN(C(=O)/C(C#N)=C\c2ncc(C)s2)C3C)CC1 (mixture of isomers) [Compound A10, (E/Z)-2-(5-((4-(2,6-dimethoxy-4-(2-methyl-1-oxo-1,2-dihydro-2,7-naphthyridin-4-yl)benzyl)piperazin-1-yl)methyl)-1-methyl-1,2,3,4-tetrahydroisoquinoline-2-carbonyl)-3-(5-methylthiazol-2-yl)acrylonitrile] | – | – | – | – | 25 to 40% | 40 to 70% | < 1.25 nM | – | –
COc1cc(-c2cn(C)c(=O)c(C)c2C)cc(OC)c1CN1CCN(Cc2cccc3c2CCN(C(=O)/C(C#N)=C/c2cccc(Br)n2)C3C)CC1 (mixture of isomers) [Compound A16, (E/Z)-3-(6-bromopyridin-2-yl)-2-(5-((4-(2,6-dimethoxy-4-(1,4,5-trimethyl-6-oxo-1,6-dihydropyridin-3-yl)benzyl)piperazin-1-yl)methyl)-1-methyl-1,2,3,4-tetrahydroisoquinoline-2-carbonyl) acrylonitrile] | – | – | – | – | 25 to 40% | 40 to 70% | < 1.25 nM | – | –
COc1cc(-c2cn(C)c(=O)c3cnccc23)cc(OC)c1CN(C)Cc1cccc2c1CCN(C(=O)/C(C#N)=C/c1cccc(Br)n1)C2C (mixture of isomers) [Compound A50] | – | – | – | – | 25 to 40% | > 75% | 1.25 to 10 nM | – | –
COc1cc(-c2cn(C)c(=O)c(C)c2C)cc(OC)c1CN1CCC(Oc2cccc3c2CCN(C(=O)/C(C#N)=C/c2cccc(Br)n2)C3C)CC1 (mixture of isomers) [Compound A68, (E/Z)-3-(6-bromopyridin-2-yl)-2-(5-((1-(2,6-dimethoxy-4-(1,4,5-trimethyl-6-oxo-1,6-dihydropyridin-3-yl)benzyl)piperidin-4-yl)oxy)-1-methyl-1,2,3,4-tetrahydroisoquinoline-2-carbonyl)acrylonitrile] | – | – | – | – | < 25% | 40 to 70% | < 1.25 nM | – | –
COc1cc(-c2cn(C)c(=O)c(C)c2C)cc(OC)c1CN1CC2CC(C1)N2Cc1cccc2c1CCN(C(=O)/C(C#N)=C/C(C)(C)C)C2C (mixture of isomers) [Compound A71, (E/Z)-2-(5-((3-(2,6-dimethoxy-4-(1,4,5-trimethyl-6-oxo-1,6-dihydropyridin-3-yl)benzyl)-3,6-diazabicyclo[3.1.1]heptan-6-yl)methyl)-1-methyl-1,2,3,4-tetrahydroisoquinoline-2-carbonyl)-4,4-dimethylpent-2-enenitrile] | – | – | – | – | 40 to 70% | > 75% | < 1.25 nM | – | –
COc1cc(-c2cn(C)c(=O)c(C)c2C)cc(OC)c1CN1CCCN(Cc2cccc3c2CCN(C(=O)/C(C#N)=C/C(C)(C)C)C3C)CC1 (mixture of isomers) [Compound A72, (E/Z)-2-(5-((4-(2,6-dimethoxy-4-(1,4,5-trimethyl-6-oxo-1,6-dihydropyridin-3-yl)benzyl)-1,4-diazepan-1-yl)methyl)-1-methyl-1,2,3,4-tetrahydroisoquinoline-2-carbonyl)-4,4-dimethylpent-2-enenitrile] | – | – | – | – | < 25% | 40 to 70% | 10 to 25 nM | – | –
COc1cc(-c2cn(C)c(=O)c(C)c2C)cc(OC)c1CN(C)C(=O)/C(C#N)=C/C(C)(C)C [BRD9ac, (E/Z)-2-cyano-N-(2,6-dimethoxy-4-(1,4,5-trimethyl-6-oxo-1,6-dihydropyridin-3-yl)benzyl)-N,4,4-trimethylpent-2-enamide] | 70 to 75% | 25 to 1000 nM | 50 to 70% | – | – | – | – | 40 to 70% | 25 to 1000 nM

The remaining lines, values ahead:

Dmax (BRD7) | DC50 (BRD7) | Dmax (BRD9; [1]) | DC50 (BRD9; [2]) | Dmax at 1 µM (BRD7) | Dmax (BRD9; [3]) | DC50 (BRD9; [4]) | Dmax (BRD9; [5]) | DC50 (BRD9; [6]) | SMILES
< 25% | > 1000 nM | 50 to 70% | < 25 nM | – | – | – | – | – | COc1cc(-c2cn(C)c(=O)c(C)c2C)cc(OC)c1CN1CC2CC1CN2C(=O)/C(C#N)=C/C(C)(C)C (mixture of isomers) [BRD9b]
25 to 40% | > 1000 nM | – | < 25 nM | – | – | – | – | – | COc1cc(-c2cn(C)c(=O)c(C)c2C)cc(OC)c1CN1CC2CC1CN2C(=O)/C(C#N)=C/c1nccs1 (mixture of isomers) [BRD9i, (E/Z)-2-(5-(2,6-dimethoxy-4-(1,4,5-trimethyl-6-oxo-1,6-dihydropyridin-3-yl)benzyl)-2,5-diazabicyclo[2.2.1]heptane-2-carbonyl)-3-(thiazol-2-yl)acrylonitrile]
< 25% | > 1000 nM | 50 to 70% | – | – | – | – | – | – | COc1cc(-c2cn(C)c(=O)c(C)c2C)cc(OC)c1CN1CCN(C(=O)/C(C#N)=C/C(C)(C)C)CC1 [BRD9a, (E/Z)-2-(4-(2,6-dimethoxy-4-(1,4,5-trimethyl-6-oxo-1,6-dihydropyridin-3-yl)benzyl)piperazine-1-carbonyl)-4,4-dimethylpent-2-enenitrile]
< 25% | > 1000 nM | > 70% | < 25 nM | – | – | – | > 75% | < 1.25 nM | COc1cc(-c2cn(C)c(=O)c(C)c2C)cc(OC)c1CN1CCCN(C(=O)/C(C#N)=C/C(C)(C)C)CC1 [BRD9c, (E/Z)-2-(4-(2,6-dimethoxy-4-(1,4,5-trimethyl-6-oxo-1,6-dihydropyridin-3-yl)benzyl)-1,4-diazepane-1-carbonyl)-4,4-dimethylpent-2-enenitrile]

Source: patent US20260092061A1, “COMPOUNDS FOR TARGETED PROTEIN DEGRADATION” (Amphista Therapeutics Limited, priority 2022, published 2026)
